Assay results published in patent US20240398767A1, “INHIBITORS OF THE MTDH-SND1 PROTEIN COMPLEX FOR CANCER THERAPY” (The Trustees of Princeton University, priority 2021, published 2024).

Key:
[1] = system: C3;UBC-CreERT+/-;Mtdhfl/fl tumor cells; assay: Tumorsphere assay, C3;UBC-CreERT+/-;Mtdhfl/fl tumor cells; type: cell-based, mouse; details: with or without 4-OHT pre-treatment
Method: (§1) For FIGS. 11B-11E, 50 k per well of cells were seeded and treated with indicated compounds the next day. 5 days after treatment, sphere number and size were assessed and normalized to vehicle control group. Data represent mean±SEM. n=3 independent experiments. Significance determined by one-way ANOVA analysis with Dunnett's test for multiple comparisons.
FIG. 11B, C3; UBC-Cre^ERT+/−;Mtdh^fl/fl tumor cells (FIGS. 11D, 11E) without 5 days of 0.02 μg/ml 4-OHT pre-treatment were subjected to the tumorsphere assay.
FIG. 11C, C3; UBC-Cre^ERT+/−;Mtdh^fl/fl tumor cells with 5 days of 0.02 μg/ml 4-OHT pre-treatment were subjected to the tumorsphere assay.

Caco-2 cells = assay: Caco-2 cell based permeability test; type: in vitro ADME; details: 5 μM, A-to-B and B-to-A, 120 min
Method: FIG. 11A, Caco-2 cells were employed to test cell permeability of C26-A2 and A6. 5 μM of compounds were dosed on both apical side (A-to-B) and basolateral side (B-to-A). Samples were taken from the donor and receiver chambers at 120 min after treatment. All samples were assayed by LC-MS/MS using electrospray ionization. The apparent permeability (Papp) and percent recovery were calculated.
C26s cell permeability test. The cell permeability of C26-A2 and A6 were determined with monolayer of Caco-2 cells with both the apical-to-basolateral (A-to-B) and basolateral-to-apical (B-to-A) directions by Absorption Systems LLC Detailed protocol can be found in previous studies.

[2] = target: T1, MTDH-SND1 interaction (split-luc) in SCP28 cells (Homo sapiens, UniProt Q7KZF4); assay: Split-luciferase reporter in living SCP28 cells; type: cell-based; details: for blocking efficiency over time (stability of the compounds in cells): 100 μM, 5 days after the addition; for split-luc activity in living cells: multiple doses, 30 min after treatment
T1 construct: SND1-NLuc and CLuc-MTDH flanked by BamH 1 and Not 1 restriction sites were inserted into pcDNA3.1 and pRVPTO (retrovrial) vectors; expressed in transfected cells; host or cells: SCP28 cells stably transduced with pRVPTO retroviral vectors (packaged in H29 cells)
Method: (§2) FIG. 4A, SCP28 cells that stably express split- or linked-luciferase components were treated with multiple doses of C26-A2 or C26-A6. 30 minutes (min) after treatment, culture media was removed and the luciferase activity in the cells was measured. Data represent mean±SEM. n=3 independent experiments.
FIG. 4B, The same cells as in FIG. 4A were treated with 100 μM of the compounds for indicated days, and were harvested to measure the luciferase activity. Data represent mean±SEM. n=3 independent experiments.
(§3) C26s inhibit breast cancer progression and metastasis. C26-A2 and A6 were picked for the functional test. To this end, it was tested whether C26-A2 and A6 could inhibit breast cancer progression. […] Next, SCP28 breast cancer cells that were engineered to express split- or linked-luciferase reporter were treated with C26-A2 or A6.

[3] = system: Wnt;UBC-CreERT+/-;Mtdhfl/fl tumor cells; assay: Tumorsphere assay, Wnt;UBC-CreERT+/-;Mtdhfl/fl tumor cells; type: cell-based, mouse; details: with or without 4-OHT pre-treatment
Method: as §1
FIG. 11D, Wnt;UBC-Cre^ERT+/−;Mtdh^fl/fl tumor cells without 5 days of 0.02 μg/ml 4-OHT pre-treatment were subjected to the tumorsphere assay.
FIG. 11E, Wnt;UBC-Cre^ERT+/−;Mtdh^fl/fl tumor cells with 5 days of 0.02 μg/ml 4-OHT pre-treatment were subjected to the tumorsphere assay.

[4] = target: T2, linked-luc in SCP28 cells (Photinus pyralis, UniProt P08659, INS416[…]); assay: Linked-luciferase reporter in living SCP28 cells; type: cell-based; details: multiple doses, 30 min after treatment
T2 construct: NLuc and CLuc were linked with 3 repeats of GGGS, flanked by the same restriction sites, and inserted into the same vectors; expressed in transfected cells; host or cells: SCP28 cells stably transduced with pRVPTO retroviral vector
Method: as §2, §3

[5] = system: PyMT tumor cells with Mtdh KO or Snd1 KD; assay: Tumorsphere assay, PyMT;UBC-CreERT+/-;Mtdhfl/fl cells with Mtdh KO or Snd1 KD; type: cell-based, mouse; details: Mtdh KO (4-OHT pre-treatment) or Snd1 KD
Method: as §1, with “FIG. 4D, PyMT;UBC-Cre^ERT+/−;Mtdh^fl/fl cells with 5 days of 0.02 μg/ml 4-OHT pre-treatment was employed for tumorsphere assay.” for “For FIGS. 11B-11E,”, “seed” for “seeded”, “Sidak's” for “Dunnett's”
FIG. 4E, PyMT;UBC-Cre^ERT+/−;Mtdh^fl/fl cells with or without SND1 knockdown, or without 5 days of 0.02 μg/ml 4-OHT pre-treatment were subjected to the tumorsphere assay and then treated with 200 μM of C26-A6 similar to FIG. 4C. Data represent mean SEM. n=3 independent experiments. Significance determined by two tailed Student's t-test.
FIG. 4F, PyMT;UBC-Cre^ERT+/−;Mtdh^fl/fl cells with or without SND1 knockdown, or with 5 days of 0.02 μg/ml 4-OHT pre-treatment were subjected to the tumorsphere assay and then treated with 200 μM of C26-A6 similar to FIG. 4C. Data represent mean±SEM. n=3 independent experiments. Significance determined by two tailed Student's t-test.
Next, PyMT; UBC-Cre^ERT+/−;Mtdh^fl/fl tumor cells: 1) with or without Mtdh pre-depletion; 2) with or without endogenous Snd1 knockdown; or 3) in combination were employed for tumorsphere assay followed by the compound treatments. […]

[6] = system: PyMT;UBC-CreERT+/-;Mtdhfl/fl wild type tumor cells; assay: Tumorsphere assay, PyMT;UBC-CreERT+/-;Mtdhfl/fl wild type tumor cells; type: cell-based, mouse; details: 5 days after treatment
Method: as §1, with “FIG. 4C, PyMT;UBC-Cre^ERT+/−;Mtdh^fl/fl cells without 5 days of 0.02 μg/ml 4-OHT pre-treatment was employed for tumorsphere assay.” for “For FIGS. 11B-11E,”, “seed” for “seeded”, “Sidak's” for “Dunnett's”
Next, PyMT; UBC-Cre^ERT+/−;Mtdh^fl/fl tumor cells: 1) with or without Mtdh pre-depletion; 2) with or without endogenous Snd1 knockdown; or 3) in combination were employed for tumorsphere assay followed by the compound treatments. […] The results were confirmed using C3 and Wnt;UBC-Cre^ERT+/−;Mtdh^fl/fl tumorspheres (FIG. 11B-11E). Taken together, these findings confirmed that the anti-tumor effect of C26-A2 and A6 is dependent on their specific effect on blocking MTDH-SND1 interaction.

T1 sequence (Q7KZF4 with tags, fused parts or gaps): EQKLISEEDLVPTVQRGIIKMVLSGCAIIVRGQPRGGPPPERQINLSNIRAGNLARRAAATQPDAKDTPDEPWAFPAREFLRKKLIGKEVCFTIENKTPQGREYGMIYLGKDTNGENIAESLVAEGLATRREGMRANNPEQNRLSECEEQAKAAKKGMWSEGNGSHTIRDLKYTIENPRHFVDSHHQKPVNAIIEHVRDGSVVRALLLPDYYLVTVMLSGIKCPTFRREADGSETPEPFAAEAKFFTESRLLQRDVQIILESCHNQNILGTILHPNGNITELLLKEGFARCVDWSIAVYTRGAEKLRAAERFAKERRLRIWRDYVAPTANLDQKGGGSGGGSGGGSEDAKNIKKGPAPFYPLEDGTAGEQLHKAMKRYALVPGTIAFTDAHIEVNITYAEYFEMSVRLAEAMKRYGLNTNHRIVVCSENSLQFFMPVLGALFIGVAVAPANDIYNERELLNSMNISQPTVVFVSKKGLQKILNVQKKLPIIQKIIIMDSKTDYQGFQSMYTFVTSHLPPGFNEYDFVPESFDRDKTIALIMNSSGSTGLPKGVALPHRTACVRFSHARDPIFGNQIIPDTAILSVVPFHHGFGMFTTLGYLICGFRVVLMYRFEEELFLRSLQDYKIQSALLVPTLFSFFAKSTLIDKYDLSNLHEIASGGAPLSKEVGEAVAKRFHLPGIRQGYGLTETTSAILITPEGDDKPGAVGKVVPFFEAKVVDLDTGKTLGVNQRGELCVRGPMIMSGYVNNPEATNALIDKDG
T2 sequence (P08659 with tags, fused parts or gaps INS416[withheld]): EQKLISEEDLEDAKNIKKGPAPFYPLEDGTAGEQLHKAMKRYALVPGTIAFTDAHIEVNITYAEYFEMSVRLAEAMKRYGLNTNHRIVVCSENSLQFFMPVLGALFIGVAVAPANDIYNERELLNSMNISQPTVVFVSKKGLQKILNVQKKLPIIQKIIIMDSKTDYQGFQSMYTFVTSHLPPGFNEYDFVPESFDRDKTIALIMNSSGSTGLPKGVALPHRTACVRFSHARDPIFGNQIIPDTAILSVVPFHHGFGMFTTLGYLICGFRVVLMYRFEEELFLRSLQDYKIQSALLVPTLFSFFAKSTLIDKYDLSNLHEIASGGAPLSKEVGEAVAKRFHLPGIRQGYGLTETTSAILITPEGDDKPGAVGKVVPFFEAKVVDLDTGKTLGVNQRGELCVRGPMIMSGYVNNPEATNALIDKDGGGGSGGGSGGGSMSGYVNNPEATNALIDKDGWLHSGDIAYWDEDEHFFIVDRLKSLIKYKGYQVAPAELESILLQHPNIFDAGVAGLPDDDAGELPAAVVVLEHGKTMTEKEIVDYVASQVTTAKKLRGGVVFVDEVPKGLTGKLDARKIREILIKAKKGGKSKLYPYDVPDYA

| Structure (SMILES) | tumorsphere formation (sphere number and size) [1] | cell permeability (Caco-2 cells) | blocking efficiency over time (stability of the compounds in cells) [2] | split-luc activity in living cells [2] | tumorsphere formation (sphere number and size) [3] | linked-luc activity in living cells [4] | tumorsphere formation (sphere number and size) [5] | tumorsphere formation (sphere number and size) [6] |
| --- | --- | --- | --- | --- | --- | --- | --- | --- |
| COc1ccc(Cl)cc1S(=O)(=O)Nc1cccn2ncnc12 [Analog C26-A2] | confirmed | highly permeable | not significantly changed | inhibited split-luc activity in living cells in a dose dependent manner | confirmed | without significantly affecting linked-luc activity | no effects | inhibited spheres |
| COc1ccc(Cl)cc1S(=O)(=O)Nc1cccn2nc(C)nc12 [Analog C26-A6] | confirmed | highly permeable | not significantly changed | inhibited split-luc activity in living cells in a dose dependent manner | confirmed | without significantly affecting linked-luc activity | no effects | inhibited spheres |
